This is an account of results in paper PMC12191924, “A new naphthalene-based fluorogenic substrate for cytochrome P450 4A11” (Biochemical Journal, 2025).

“And” between values parts separate entries of the source, which are not always exact repeats. Equal values may be shown once. Read-outs that look alike come from different tables or passages of the source.

Data set [1] has as its system monkey liver microsomes (MLM). Put plainly: MONACRA O-demethylation by monkey liver microsomes, FA-AAA formaldehyde assay. It is filed as in vitro ADME, cynomolgus monkey (Macaca fascicularis). Conditions: sum of two Michaelis–Menten components. The text has this:
(§1) To probe if MONACRA can be metabolized to hydroxy-naphthyl acrylic acid (HONACRA) by liver microsomes, we utilized our high-throughput fluorimetric assay of formed formaldehyde with acetoacetanylide (FA-AAA assay, [34]). In our initial experiments, we used cynomolgus monkey (Macaca fascicularis) liver microsomes (MLM).
(§2) Figure 3: O-demethylation of 3-(6-methoxynaphthalen-2-yl)acrylic acid (MONACRA) by monkey liver microsomes (MLM). […] Panel B exemplifies the substrate saturation profile of MONACRA demethylation by MLM (0.98 mg/ml) determined by formed formaldehyde with acetoacetanylide (FA-AAA) assay with 20-min incubation at 30°C. The datasets shown in the figures represent averages of the results of two individual experiments, and the error bars indicate the standard deviations.
(§3) MONACRA demethylation was monitored by quantifying the amount of formed formaldehyde using a high-throughput fluorimetric assay based on the Hantzsch reaction with acetoacetanilide. The plates were prepared as described above. The assays were executed as described earlier, except for monitoring the formation of DPDL by the spectra of its emission with excitation at 395 nm instead of the spectra of excitation, as it was described earlier. This modification of the assay procedure was done because of an ample overlap of the spectra of excitation of MONACRA and HONACRA with that of DPDL.

Assay in data set [2]: as above
It is filed as in vitro ADME, cynomolgus monkey (Macaca fascicularis). Conditions: cynomolgus monkey, liver microsomes, MLM, FA assay, 20-min incubation at 30°C.
Excerpt: as §1, §2, §3
Background: Microsomes from liver hold many membrane-bound enzymes, among them those of drug oxidation.

In a further data set the target is T1, CYP1A2 (Homo sapiens, UniProt P05177).
T1 sequence (P05177 2-516 limits assumed): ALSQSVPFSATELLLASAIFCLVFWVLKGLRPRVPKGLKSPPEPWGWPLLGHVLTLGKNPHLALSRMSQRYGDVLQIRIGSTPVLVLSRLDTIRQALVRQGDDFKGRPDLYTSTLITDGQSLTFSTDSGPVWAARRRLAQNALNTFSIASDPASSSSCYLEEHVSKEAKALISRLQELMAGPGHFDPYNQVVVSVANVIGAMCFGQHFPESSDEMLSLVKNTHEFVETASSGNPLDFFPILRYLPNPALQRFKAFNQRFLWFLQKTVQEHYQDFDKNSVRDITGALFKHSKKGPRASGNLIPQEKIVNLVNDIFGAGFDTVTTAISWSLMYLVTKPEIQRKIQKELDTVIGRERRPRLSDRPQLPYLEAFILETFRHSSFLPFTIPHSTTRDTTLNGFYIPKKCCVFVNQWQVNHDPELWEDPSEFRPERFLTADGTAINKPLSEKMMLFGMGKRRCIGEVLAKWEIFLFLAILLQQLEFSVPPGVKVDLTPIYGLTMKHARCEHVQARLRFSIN
Put plainly: MONACRA demethylation by recombinant CYP1A2 in Supersomes, high-throughput fluorimetric assay. It is filed as biochemical. The arrangement: purchased Gentest (Supersomes), now a part of Discovery Life Sciences; CYP1A2 is not in the lot list; host or cells: insect cells, recombinant baculovirus. On the procedure: Based on these observations, we developed a high-throughput automated assay applicable for studying SSPs of MONACRA metabolism by microsomal P450 enzymes. In this procedure, the incubation mixtures containing an NADPH-generating system and various substrate concentrations are placed in a multiwell plate and preincubated at 30°C in a thermostated shaker. The reaction is started by adding microsomal suspension to the final concentration of 0.3–1 mg/ml of microsomal protein or 0.02–0.1 µM of recombinant P450 enzymes in Supersomes. Following the incubation for 20 min at 30°C, the reaction is quenched by adding trichloroacetic acid (final concentration […]). After supplementing the wells with Na-glycine buffer (pH 10.4, final concentration 2.1 M), the plates are subjected to scanning the fluorescence spectra with excitation at 375 nm. This assay, which is described in detail in Materials and Methods, allows reliable detection of the concentrations of HONACRA as low as 0.1 µM.
We used the high-throughput activity assay described above to probe MONACRA metabolism by 16 human microsomal P450 enzymes, namely CYP1A2, CYP2A6, CYP2B6, CYP2C8, CYP2C9, CYP2C19, CYP2D6, CYP2E1, CYP2J2, CYP3A4, CYP3A5, CYP4A11, CYP4F2, CYP4F3A, CYP4F3B, and CYP4F12. […]

In the case of `COc1ccc2cc(C=CC(=O)O)ccc2c1` [MONACRA, 3-(6-methoxynaphthalen-2-yl)acrylic acid], the “total Vmax” value in data set [1] is 17.2 mol FA per mol of NADPH-cytochrome P450 reductase (CPR) per minute. The Km at 20 min in data set [2] (read-out: KM, first of two Michaelis–Menten components) worked out at 28.4 µM; in data set [2] (read-out: KM, second of two Michaelis–Menten components) it was 260 µM. For the same molecule, on CYP1A2 (substrate inhibition equation), the Vmax stood at 43.7 ± 5.9 min⁻¹. Moreover, the “Ksi (substrate inhibition constant)” value at CYP1A2 (substrate inhibition equation (eqn 2)) was 650 ± 200 µM and 648 ± 197 µM.

For orientation: Km means the substrate concentration at which the rate is half of its maximum.
